In patent US9518038B2, “Condensation product of theanine derivative and carboxylic acid coumarin derivative, its intermediate, preparation method and use thereof” (SHANDONG YINGDONG YINGHAO BIOTECHNOLOGY, INC., priority 2012, dated 2016):

Columns and labels:
[1] = system: human lung cancer cells A549; assay: MTT growth inhibition, A549 cells; format: cell-based; settings: 72 h after treatment, read-out: Drug concentration (IC50) at which 50% cancer cells survived
Description: (§1) Cell lines and cell culture: human lung cancer cells A549 and H460, human breast cancer cells MCF-7 and MDA-MB-231, human gastric cancer cells BGC-823, human prostate cancer cells PC-3, human chronic leukemia cells K562, human lymphoma cells U937, human liver cancer cells SMMC7721 and HepG2, human colon cancer cells HT29, human pancreatic cancer cells PANC-1 and BxPC3, human cervical cancer Hela cell lines, human brain tumor cells Daoy, human neuroma cells D54 and human oral epidermoid cancer cells KBV200 line with strong drug resistance, mouse melanoma cells B16, and highly metastatic Lewis lung cancer cell lines were purchased from American Type Culture Collection of the U.S. These cells were cultured with DMEM and RPMI-1640 culture solutions separately.
(§2) The procedure was as follows:
(§3) (1) 0.25% trypsin was used to digest cancer cells in a logarithmic growth phase to prepare a single-cell suspension, the concentration of cells was adjusted to 5×10^4/mL, and the adjusted suspension was inoculated into a 96-well culture plate with 100 μl per well;
(§4) (2) The culture plate was transferred into a 37° C. incubator with a saturated humidity and 5% of CO2 and cultured for 24 h; the compounds and the intermediates thereof obtained in embodiments 1-7 and the compound as represented by formula (IIIa) or the positive control anti-cancer drug with the concentration of 1-1000 μM/L were added to enable the final concentration to be 0.1-1500 μM/L. Control wells (only added with 200 μl of cell suspension) and drug-free blank control wells (containing the solvent of 0.01% DMSO) were set, each group included 8 wells, and the plate was placed into the 37° C. incubator with saturated humidity and 5% of CO2 for culturing;
(§5) (3) The 96-well plate was taken out at 48 h and 72 h after dosing, the original culture medium was carefully removed by suction, 100 μl of serum-free DMEM culture medium and 10 μl of MTT (5 mg/mL) solution were added in each well. The plate was continuously cultured for another 4 h and then the culture was terminated;
(§6) (4) The supernatant in the wells was carefully removed by suction, each well was added with 150 μl of DMSO and shaked at room temperature for 10-15 min to fully dissolve crystals.
(§7) (5) Colorimetric analysis: the wavelength was selected as 570 nm, the light absorbance (A value) of each well was determined on the microplate reader and the results were recorded; the experiment was repeated for three times;
(§8) (6) the experimental results were calculated according to the following formula: relative survival rate=(A value of each experimental group/A value of cell control group)×100%
(§9) Calculation of median-effect concentration (IC50, namely the drug concentration at which the inhibition rate is 50%, also known as half inhibitory concentration):
(§10) IC50 of the detected component was calculated by using a regression equation.

[2] = system: human lymphoma cells U937; assay: MTT growth inhibition, U937 cells; format: cell-based; settings: Homo sapiens, U-937, 72 h after treatment, read-out: Drug concentration (IC50) at which 50% cancer cells survived
Description: as §2, §5, §6, §7, §8, §10

[3] = system: human liver cancer cells HepG2; assay: MTT growth inhibition, HepG2 cells; format: cell-based; settings: 72 h after treatment, read-out: Drug concentration (IC50) at which 50% cancer cells survived
Description: as §1, §2, §3, §4, §5, §6, §7, §8, §9, §10

[4] = system: human oral epidermoid cancer cells KBV200; assay: MTT growth inhibition, KBV200 cells; format: cell-based; settings: 72 h after treatment, read-out: Drug concentration (IC50) at which 50% cancer cells survived
Description: as §1, §2, §3, §4, §5, §6, §7, §8, §9, §10

[5] = system: human breast cancer cells MDA-MB231 xenograft; assay: In-vivo growth of MDA-MB231 xenografts in nude mice; set-up: species or system BALB/c nude mice; settings: Mus musculus, MDA-MB-231, ip, MB-231 xenograft, vs DMSO solvent control, read-out: Curative effect (inhibition rate %) of tumor weight; for inhibition in vivo at 60 mg/kg: 60 mg/kg intraperitoneal once a day; for inhibition in vivo at 90 mg/kg: 90 mg/kg intraperitoneal once a day
Description: (§11) RPMI1640 and DMEM culture solutions: Hyclone Company; inactivated fetal bovine serum: Hyclone Company, preserved at −20° C.; trypsin: Amersco Company; and 0.4% trypan blue: Sigma Company;
(§12) (3) Observation of growth of tumors in nude mice: the activities (including food intake, traits of urine and stool, mental state and the like) of the nude mice and the tumor growth time and growth situation of the transplanted tumors were observed every day, the body weight and the size of the tumors were measured once every 2-3 days. The long diameter a and the short diameter b (mm) of each tumor were measured by a vernier caliper to calculate the volume, wherein the volume V=π1/2·ab^2 (mm^3);
(§13) (4) sacrifice of animals: the mice were anesthetized and photoed after treatment experiments; the nude mice were sacrificed by breaking neck, the tumor tissues were stripped under sterile conditions and the weight of the tumors was weighed; and the effects of the drugs on pathology and toxicity of the various organs and tissues were detected.

[6] = system: human liver cancer cells SMMC7721 xenograft; assay: In-vivo growth of SMMC7721 xenografts in nude mice; set-up: species or system BALB/c nude mice; settings: Mus musculus, SMMC-7721, ip, S-7721 xenograft, vs DMSO solvent control, read-out: Curative effect (inhibition rate %) of tumor weight; for inhibition in vivo at 60 mg/kg: 60 mg/kg intraperitoneal once a day; for inhibition in vivo at 90 mg/kg: 90 mg/kg intraperitoneal once a day
Description: as §11, §12, §13

[7] = system: human pancreatic cancer cells PANC-1 xenograft; assay: In-vivo growth of PANC-1 xenografts in nude mice; set-up: species or system BALB/c nude mice; settings: Mus musculus, ip, vs DMSO solvent control, read-out: Curative effect (inhibition rate %) of tumor weight; for inhibition in vivo at 60 mg/kg: 60 mg/kg intraperitoneal once a day; for inhibition in vivo at 90 mg/kg: 90 mg/kg intraperitoneal once a day
Description: as §11, §12, §13

[8] = system: Akt; assay: Western Blotting, Akt level; format: cell-based; settings: human liver cancer cells, Lewis lung cancer cells and other cancer cell lines and tumor tissues, read-out: Effective concentration (IC50) for inhibition of Akt
Description: (§14) Antibodies: primary antibodies of VEGFR, EGFR, c-Met, K-Ras, H-Ras, Akt, NF-κB, Cyclin D1, ER-alpha, Dvl-1, Dvl-2, Dvl-3, MMP-9, MMP2, β-catenin, Bcl-2, Bax, p53, p21, E-cadherin and Caspase3 protein, purchased from American Cell Signaling Technology Company and Santa Cruz Technology Company; and H3 acetylation, H4 acetylation and HDAC (HDAC3, HDAC4 and the like) Antibody Sample Kits, purchased from Cell Signaling Technology Company of the U.S.
(§15) (3) polyacrylamide gel electrophoresis (SDS-PAGE): an equal amount of protein lysate sample was used to separate protein, film transfer, and blocking, treated with appropriate primary antibodies and secondary antibodies in sequence, and the film was washed, then the color was developed with ECL kit, and a blot protein band was detected by exposure of an X-ray film; and a Gel-Pro Analyzer was used for quantitative analysis of gray degree, optical density value of the control group and the drug treatment group in various concentration were respectively compared with that of internal reference, the obtained ratios were respectively compared with the control group, and the protein expression level was semi-quantified.

[9] = system: K-Ras; assay: Western Blotting, K-Ras level; format: cell-based; settings: human liver cancer cells, Lewis lung cancer cells and other cancer cell lines and tumor tissues, read-out: Effective concentration (IC50) for inhibition of K-Ras
Description: as §14, §15

[10] = system: VEGFR2; assay: Western Blotting, VEGFR2 level; format: cell-based; settings: human liver cancer cells, Lewis lung cancer cells and other cancer cell lines and tumor tissues, read-out: Effective concentration (IC50) for inhibition of VEGFR2
Description: as §14, §15

[11] = system: EGFR; assay: Western Blotting, EGFR level; format: cell-based; settings: human liver cancer cells, Lewis lung cancer cells and other cancer cell lines and tumor tissues, read-out: Effective concentration (IC50) for inhibition of EGFR
Description: as §14, §15

SMILES | IC50 [1] | IC50 [2] | IC50 [3] | IC50 [4] | inhibition in vivo at 60 mg/kg [5] | inhibition in vivo at 90 mg/kg [5] | inhibition in vivo at 60 mg/kg [6] | inhibition in vivo at 90 mg/kg [6] | inhibition in vivo at 60 mg/kg [7] | inhibition in vivo at 90 mg/kg [7] | IC50 [8] | IC50 [9] | IC50 [10] | IC50 [11]
CCNC(=O)CCC(NC(=O)c1cc2cc([N+](=O)[O-])ccc2oc1=O)C(=O)OCC (stereo in doubt) [Compound If, (R)-2-(6-nitro-2-oxo-2H-benzopyran-3-carboxamido)-5-ethylamino-5-oxo-pentanoic acid ethyl ester] | 122 µM | 121 µM | 130 µM | 102 µM | 52.6% | 62.3% | 65.7% | 75.7% | 53.6% | 67.3% | < 90 µM | < 55 µM | < 90 µM | < 100 µM
CCNC(=O)CC[C@@H](NC(=O)c1cc2cc(Br)ccc2oc1=O)C(=O)OCC [Compound Id, (R)-2-(6-Br-2-oxo-2H-benzopyran-3-carboxamido)-5-ethylamino-5-oxo-pentanoic acid ethyl ester] | 139 ± 50 µM | 124 µM | 125 µM | 112 µM | 53.1% | 66.7% | 67.2% | 75.7% | 54.2% | 64.8% | < 100 µM | < 60 µM | < 100 µM | < 100 µM
CCNC(=O)CC[C@@H](NC(=O)c1cc2cc(Cl)ccc2oc1=O)C(=O)OCC [Compound Ic, (R)-2-(6-CI-2-oxo-2H-benzopyran-3-carboxamido)-5-ethylamino-5-oxo-pentanoic acid ethyl ester] | 128 ± 60 µM | 52 µM | 93 µM | 97 µM | 54.1% | 65.5% | 63.2% | 69.2% | 56.5% | 66.7% | < 100 µM | < 65 µM | < 100 µM | < 100 µM
CCNC(=O)CCC(NC(=O)c1cc2ccccc2oc1=O)C(=O)OCC (stereo not shown) [Compound Ib, ethyl 5-ethylamino-5-oxo-2-(2-oxo-2H-benzopyran-3-carboxamido)pentanoate] | 125 ± 50 µM | 90 µM | 225 µM | 136 µM | 59.1% | 69.1% | 60.8% | 66.6% | 54.6% | 65.9% | < 120 µM | < 75 µM | < 120 µM | < 120 µM
CCNC(=O)CCC(NC(=O)c1cc2ccccc2oc1=O)C(=O)OC (stereo not shown) [Compound Ia, methyl 5-ethylamino-5-oxo-2-(2-oxo-2H-benzopyran-3-carboxamido)pentanoate] | 300 ± 60 µM | 56 ± 10 µM | 250 µM | 240 µM | 50.1% | 60.1% | 52.7% | 61.9% | 55.8% | 60.5% | < 125 µM | < 85 µM | < 125 µM | < 125 µM
CCNC(=O)CCC(NC(=O)c1cc2cc(F)ccc2oc1=O)C(=O)OCC (stereo in doubt) [Compound Ie, (R)-2-(6-F-2-oxo-2H-benzopyran-3-carboxamido)-5-ethylamino-5-oxo-pentanoic acid ethyl ester] | 141 µM | 126 µM | 230 µM | 210 µM | 50.9% | 60.9% | 64.8% | 69.9% | 56.6% | 64.6% | < 160 µM | < 60 µM | < 90 µM | < 110 µM
CCNC(=O)CC[C@H](N)C(=O)OC [Compound IIa, theanine methyl ester] | 650 ± 30 µM | 350 µM | 600 µM | 380 µM | 31.1% | 36.1% | 36.6% | 38.2% | 33.4% | 37.7% | – | – | – | –
CCNC(=O)CC[C@@H](NC(=O)c1cc2cc(Br)cc(Br)c2oc1=O)C(=O)OCC [Compound Ih, (R)-2-(6,8-dibromo-2-oxo-2H-benzopyran-3-carboxamido)-5-ethylamino-5-oxo-pentanoic ethyl ester] | 56 µM | 57 µM | 56 µM | 72 µM | 55.1% | 75.1% | 57.7% | 78.7% | 51.3% | 67.3% | < 70 µM | < 65 µM | < 100 µM | < 100 µM
CCNC(=O)CC[C@H](N)C(=O)OCC [Compound IIb, theanine ethyl ester] | 500 ± 30 µM | 400 µM | 300 µM | 300 µM | 44.5% | 47.8% | 44.6% | 46.8% | 32.3% | 34.8% | – | – | – | –
